This is an account of results in US20220142888A1, “COMPOSITION FOR IMPROVING SKIN CONDITIONS” (NEOPHARM CO., LTD., priority 2020, published 2022).

Structures are written as SMILES.

The test system of experiment [1] is LL-37 (cathelicidin-related antimicrobial peptide (CAMP)). The experiment can be described thus: Expression of antimicrobial peptide LL-37 in human epidermal keratinocytes, real-time PCR. The following applies: NHEKs, 1% sample (in H2O), 24 hours, gene level, FIG. 1. It is filed as cell-based. On the procedure:
(§1) In order to confirm the effect of enhancing the skin immunity and defense of each of Examples and Comparative Example of the present invention, the activities of peptide LL-37 (cathelicidin-related antimicrobial peptide (CAMP)), human β-defensin-2 (hBD-2), and human β-defensin-3 (hBD-3) having antimicrobial efficacy were confirmed.
(§2) In order for the confirmation, human epidermal keratinocytes (NHEKs) were dispensed into a 96-well plate, and the cells were cultured under cell culture conditions for 24 hours. Thereafter, the cells were treated with a control, DMSO, and a 1% sample (in H2O) of each of Examples and Comparative Example, and the cells were additionally cultured for 24 hours. A real-time PCR method was performed to determine LL-37, BD-2, and BD-3 at a gene-level. The test procedure is as follows.
(§3) SuperPrep™ cell lysis and RT Kit for qPCR (TOYOBO, SCQ-101) were used for RNA isolation and cDNA synthesis. The cells from which the medium was removed were washed once with phosphate-buffered saline (PBS), 50 μl of a cell lysis mixture (including gDNA remover) was added and reacted for 5 minutes, and then, a stop solution was added. […] QuantiTect primer assays of Qiagen were used in the experiment as a primer, and the expression levels of LL-37, BD-2, and BD-3 in the samples were quantified as GADPH and compared with each other. […]

Experiment [2] deals with human β-defensin-2 (hBD-2). Nature of the experiment: Expression of antimicrobial peptide BD-2 in human epidermal keratinocytes, real-time PCR. The conditions noted are these: NHEKs, 1% sample (in H2O), 24 hours, gene level, FIG. 2. It is filed as cell-based. The method, then: as §1, §2, §3
In experiment [3] the test system is human β-defensin-3 (hBD-3). The experiment can be described thus: Expression of antimicrobial peptide BD-3 in human epidermal keratinocytes, real-time PCR. It counts as cell-based. The conditions noted are these: NHEKs, 1% sample (in H2O), 24 hours, gene level, FIG. 3. The method, then:
as §1, §2, §3

The test system of experiment [4] is filaggrin. Nature of the experiment: Expression level of filaggrin in keratinocytes, real-time PCR. It is filed as cell-based. The following applies: 24 hours, versus untreated control, FIG. 5. The method, then: In order to measure the effect of promoting the expression of moisturizing factors of each of Examples and Comparative Example of the present invention, the expression levels of filaggrin and loricrin were measured.
Specifically, keratinocytes purchased from Invitrogen Corporation were cultured in EpiLife (keratinocyte growth medium) containing a supplement (human keratinocyte growth supplement (HKGS)) for a predetermined time, and then, the cells were subcultured three times and then used. The keratinocytes which were subcultured three times were cultured to a confluence of 70 to 80% in a 6-well plate, each of the wells was separately treated with each of the samples, and then, the keratinocytes were cultured for a total of 24 hours. RNA of the keratinocytes was extracted from the cultured cells using easy BLUE, and then, cDNA synthesis was performed using SuperScript reverse transcriptase III kit. Real-time PCR for comparing the genes was performed using 2× TaqMan universal PCR mixture (10 μl), 20× TaqMan expression assay mix (1 μl), cDNA (50 ng), and a primer (Filaggrin: Hs00856927_g1*, Loricrin: Hs01894962_s1*) and a 7500 Fast Real-Time PCR system. In addition, a sample treated with 10 μM IGF-1 was used as a positive control group, and a control that was not treated with the sample was used as a comparison group.

Experiment [5] has as its system desmoglein1 (DSG1) gene. The experiment can be described thus: Expression of desmoglein1 (DSG1) gene in UVB-irradiated NHEKs, Taqman real-time PCR. It counts as cell-based, human. The conditions noted are these: UVB 25 mJ/cm^2, 10 nM sample, 4th day of culture, FIG. 6. The method, then: In order to confirm the effect of strengthening the skin barrier of each of Examples and Comparative Example of the present invention, an expression level of DSG1 gene as an intercellular binding factor was confirmed.
Specifically, normal human epidermal keratinocytes (NHEKs) were cultured in a 6-well plate incubator. After 24 hours, the keratinocyes were washed with phosphate-buffered saline (PBS), irradiation with UVB (25 mJ/cm^2) was performed, a 10 nM sample of each of Examples and Comparative Example was added to the NHEK culture medium, and then, culture was performed. The cells were harvested on the 4th day of culture, RNA was separated, cDNA was synthesized by a reverse transcriptional polymerase chain reaction (RT-PCR), Taqman real-time PCR was performed using the synthesized cDNA, and then, the expression level of the DSG1 gene as a keratinocyte differentiation marker was measured.

`CCCCCC(=O)N[C@@H](Cc1ccc(O)cc1)C(=O)OC` [Comparative Example 1, Defensamide]: in experiment [1], the “expression level of antimicrobial peptide LL-37 relative to that in Example 2” value was determined as 40%. The “expression level of antimicrobial peptide BD-2 relative to that in Example 2” value in experiment [2] is listed as 33%. The “expression level of antimicrobial peptide BD-3 relative to that in Example 2” value in experiment [3] worked out at 40%.
Take `CCCCCCCCCC(=O)NC(CO)C(=O)OCC` (stereo not shown) [Example 1, N-(1-oxodecyl)serine ethyl ester]: the “expression level of filaggrin, increase relative to the expression level in the control” value in experiment [4] is no less than 4.3 times. The “expression level of desmoglein1, increase relative to the expression level in the UVB treatment group” value in experiment [5] is listed as no less than 4.1 times.
The corresponding values for `CCCCCCCCCC(=O)NC(CO)C(=O)OC` (stereo not shown) [Example 2, N-(1-oxodecyl)serine methyl ester] are no less than 3.8 times and no less than 4.5 times.
